This passage reports IC50 and antitumoural action results from patent publication US8445489B2, “Aryl ether pyridazinone derivatives” (Merck Patent GmbH, priority 2007, dated 2013).

pIC50: −log10 of the molar value.

The pIC50 is the IC50 on a negative log10 scale, so that one unit is a factor of ten. Read a low pIC50 as a high IC50.

One assay concerns the target T1, Met kinase (Homo sapiens, UniProt P08581).
T1 construct: 6His (N); purchased Upstate 14-526; host or cells: Sf21 insect cells (S. frugiperda), baculovirus
Description: Met kinase inhibition (enzyme assay), flashplate method. The assay is classed as biochemical. The text has this:
According to the manufacturer's data (Met, active, upstate, catalogue No. 14-526), Met kinase is expressed for the purposes of protein production in insect cells (Sf21; S. frugiperda) and subsequent affinity-chromatographic purification as “N-terminal 6His-tagged” recombinant human protein in a baculovirus expression vector.
The test plates used are 96-well Flashplate® microtitre plates from Perkin Elmer (Cat. No. SMP200). The components of the kinase reaction described below are pipetted into the assay plate. The Met kinase and the substrate poly Ala-Glu-Lys-Tyr, (pAGLT, 6:2:5:1), are incubated for 3 hrs at room temperature with radioactively labelled ^33P-ATP in the presence and absence of test substances in a total volume of 100 μl. The reaction is terminated using 150 μl of a 60 mM EDTA solution. After incubation for a further 30 min at room temperature, the supernatants are filtered off with suction, and the wells are washed three times with 200 μl of 0.9% NaCl solution each time. The measurement of the bound radioactivity is carried out by means of a scintillation measuring instrument (Topcount NXT, Perkin-Elmer).
The full value used is the inhibitor-free kinase reaction. This should be approximately in the range 6000-9000 cpm. The pharmacological zero value used is staurosporin in a final concentration of 0.1 mM. The inhibitory values (IC50) are determined using the RS1_MTS program.
Kinase Reaction Conditions Per Well:
10 μl of substance to be tested in assay buffer with 10% of DMSO
10 μl of ATP (final concentration 1 μM cold, 0.35 μCi of ^33P-ATP)
50 μl of Met kinase/substrate mixture in assay buffer;
• (10 ng of enzyme/well, 50 ng of pAGLT/well)
50 mM HEPES • 3 mM magnesium chloride • 3 μM sodium orthovanadate • 3 mM manganese(II) chloride • 1 mM dithiothreitol (DTT) pH=7.5 (to be set using sodium hydroxide)
60 mM Titriplex III (EDTA) • ^33P-ATP: Perkin-Elmer; • Met kinase: Upstate, Cat. No. 14-526, Stock 1 μg/10 μl; spec. activity 954 U/mg; • Poly-Ala-Glu-Lys-Tyr, 6:2:5:1: Sigma Cat. No. P1152 In-Vivo Tests (FIG. 1/1) Experimental Procedure: […]

The next assay has as its system TPR-Met/NIH3T3 cells. Put plainly: In-vivo test, TPR-Met/NIH3T3 tumour model in mice. To be noted: 200 mg/kg daily by gastric tube, 9 days; tumour volume; female Balb/C mice, s.c. TPR-Met/NIH3T3 cells. On the procedure:
Female Balb/C mice (breeder: Charles River Wiga) were 5 weeks old on arrival. They were acclimatised to our keeping conditions for 7 days. Each mouse was subsequently injected subcutaneously in the pelvic area with 4 million TPR-Met/NIH3T3 cells in 100 μl of PBS (without Ca++ and Mg++). […] 100 μl of vehicle (0.25% methylcellulose/100 mM acetate buffer, pH 5.5) were administered daily to the control group, and 200 mg/kg of “A56” or “A91” dissolved in the vehicle (volume likewise 100 μl/animal) were administered daily to the treatment groups, in each case by gastric tube.
The length (L) and breadth (B) were measured using a Vernier calliper, and the tumour volume was calculated from the formula L×B×B/2.
4 or 5 animals per cage, feeding with commercial mouse food (Sniff).

T1 sequence (P08581 956-1390 limits assumed): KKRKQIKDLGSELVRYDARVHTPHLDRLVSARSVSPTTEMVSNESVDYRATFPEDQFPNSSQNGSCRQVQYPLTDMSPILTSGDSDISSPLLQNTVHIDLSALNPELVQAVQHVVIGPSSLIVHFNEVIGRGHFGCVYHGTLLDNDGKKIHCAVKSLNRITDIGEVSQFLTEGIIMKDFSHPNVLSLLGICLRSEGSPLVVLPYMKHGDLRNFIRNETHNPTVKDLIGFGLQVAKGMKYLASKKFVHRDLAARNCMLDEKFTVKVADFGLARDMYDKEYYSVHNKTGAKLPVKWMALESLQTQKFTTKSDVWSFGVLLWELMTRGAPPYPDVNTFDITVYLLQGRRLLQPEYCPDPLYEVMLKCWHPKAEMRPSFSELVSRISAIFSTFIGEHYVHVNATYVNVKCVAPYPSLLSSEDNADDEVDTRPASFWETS

In turn, `CCOC(=O)Nc1cccc(Cn2nc(-c3cccc(OCCCO)c3)ccc2=O)c1` [Compound A19] showed a pIC50 on Met kinase of 6.00 to 8.00.

`CCOC(=O)Nc1cccc(Cn2nc(-c3cccc(OCCN4CCOCC4)c3)ccc2=O)c1` [Compound A24]: on Met kinase, the pIC50 is 6.00 to 8.00.

On to `CCOC(=O)Nc1cccc(Cn2nc(-c3ccc(OCCCCOC)cc3)ccc2=O)c1` [Compound A7], for which the pIC50 on Met kinase is 6.00 to 8.00.

The compound `CCOC(=O)Nc1cccc(Cn2nc(-c3ccc(OCCCOC)cc3)ccc2=O)c1` [Compound A11] had a pIC50 at Met kinase of 6.00 to 8.00.

`CCOC(=O)Nc1cccc(Cn2nc(-c3ccc(OCCCCCN)cc3)ccc2=O)c1` [Compound A44] showed a pIC50 against Met kinase of 6.00 to 8.00.

At Met kinase, `CCOC(=O)Nc1cccc(Cn2nc(-c3cc(F)c(OCCCCO)c(F)c3)ccc2=O)c1` [Compound A35] had a pIC50 of 6.00 to 8.00.

`CCOC(=O)Nc1cccc(Cn2nc(-c3ccc(OCCN)cc3)ccc2=O)c1` [Compound A48]: the pIC50 at Met kinase is 6.00 to 8.00.

In turn, `CCOC(=O)Nc1cccc(Cn2nc(-c3ccc(OCCCCN)cc3)ccc2=O)c1` [Compound A50] had a pIC50 on Met kinase of 6.00 to 8.00.

The compound `CCOC(=O)Nc1cccc(Cn2nc(-c3ccc(OCCO)cc3)ccc2=O)c1` [Compound A9] gave a pIC50 against Met kinase of 6.00 to 8.00.

`CCOC(=O)Nc1cccc(Cn2nc(-c3cc(F)c(OCCCNC)c(F)c3)ccc2=O)c1` [Compound A29a] had a pIC50 at Met kinase of 6.00 to 8.00.

Turning to `CCOC(=O)Nc1cccc(Cn2nc(-c3ccc(OCCCCNC(=O)OC(C)(C)C)cc3)ccc2=O)c1` [Compound A12], on Met kinase, the pIC50 is 6.00 to 8.00.

At Met kinase, `CN(C)CCCOc1c(F)cc(-c2ccc(=O)n(Cc3ccc4[nH]c(=O)[nH]c4c3)n2)cc1F` [Compound A55, 5-{3-[4-(3-dimethylaminopropoxy)-3,5-difluorophenyl]-6-oxo-6H-pyridazin-1-ylmethyl}-1,3-dihydrobenzimidazol-2-one] had a pIC50 of 6.00 to 8.00.

Consider `CN1CCN(CCCOc2c(F)cc(-c3ccc(=O)n(Cc4ccc5[nH]c(=O)[nH]c5c4)n3)cc2F)CC1` [Compound A56, 5-(3-{3,5-difluoro-4-[3-(4-methylpiperazin-1-yl)propoxy]-phenyl}-6-oxo-6H-pyridazin-1-ylmethyl)-1,3-dihydrobenzimidazol-2-one], for which the pIC50 at Met kinase is 6.00 to 8.00. Besides, in the assay on TPR-Met/NIH3T3 cells, the antitumoural action result is given as “significant antitumoural action”.

For the compound `CCOC(=O)Nc1cccc(Cn2nc(-c3ccc(OCCCO)cc3)ccc2=O)c1` [Compound A2], the pIC50 against Met kinase is 6.00 to 8.00.

Turning to `CCOC(=O)Nc1cccc(Cn2nc(-c3cc(F)c(OCCCN4CCOCC4=O)c(F)c3)ccc2=O)c1` [Compound A28], at Met kinase, the pIC50 was 6.00 to 8.00.

On Met kinase, `CCOC(=O)Nc1cccc(Cn2nc(-c3ccc(OCCN(C)C)cc3)ccc2=O)c1` [Compound A8] had a pIC50 of 6.00 to 8.00.

For the compound `CCOC(=O)Nc1cccc(Cn2nc(-c3cc(F)c(OCCCN)c(F)c3)ccc2=O)c1` [Compound A53], at Met kinase, the pIC50 is 6.00 to 8.00.

For `CCOC(=O)Nc1cccc(Cn2nc(-c3cccc(OCCCCO)c3)ccc2=O)c1` [Compound A22], the pIC50 against Met kinase is 6.00 to 8.00.

Consider `CCOC(=O)Nc1cccc(Cn2nc(-c3cccc(OCCCCN)c3)ccc2=O)c1` [Compound A49], for which the pIC50 at Met kinase is 6.00 to 8.00.

As for `CCOC(=O)Nc1cccc(Cn2nc(-c3cccc(OCCCCOC)c3)ccc2=O)c1` [Compound A20], on Met kinase, the pIC50 is 6.00 to 8.00.

On Met kinase, `CCOC(=O)Nc1cccc(Cn2nc(-c3ccc(OCCN4CCOCC4)cc3)ccc2=O)c1` [Compound A1] showed a pIC50 of 6.00 to 8.00.

As to `CCOC(=O)Nc1cccc(Cn2nc(-c3cccc(OCCNC(=O)OC(C)(C)C)c3)ccc2=O)c1` [Compound A26], the pIC50 against Met kinase was 6.00 to 8.00.

As to `CCOC(=O)Nc1cccc(Cn2nc(-c3cccc(OCCCOC)c3)ccc2=O)c1` [Compound A25], the negative logarithm of the IC50 (pIC50) on Met kinase is 6.00 to 8.00.

On Met kinase, `CCOC(=O)Nc1cccc(Cn2nc(-c3cc(F)c(OCCCN4CCCC4)c(F)c3)ccc2=O)c1` [Compound A43] showed a pIC50 of 6.00 to 8.00.

For the compound `CCOC(=O)Nc1cccc(Cn2nc(-c3cc(F)c(OCCOC)c(F)c3)ccc2=O)c1` [Compound A34], the pIC50 on Met kinase is 6.00 to 8.00.

Take `CCOC(=O)Nc1cccc(Cn2nc(-c3cc(F)c(OCCCCCN)c(F)c3)ccc2=O)c1` [Compound A52]: at Met kinase, the pIC50 is 6.00 to 8.00.

On Met kinase, `CCOC(=O)Nc1cccc(Cn2nc(-c3cccc(OCCCCNC(=O)OC(C)(C)C)c3)ccc2=O)c1` [Compound A23] gave a pIC50 of 6.00 to 8.00.

`CCOC(=O)Nc1cccc(Cn2nc(-c3cc(F)c(OCCCOC)c(F)c3)ccc2=O)c1` [Compound A37] showed a pIC50 against Met kinase of 6.00 to 8.00.

Take `CCOC(=O)Nc1cccc(Cn2nc(-c3ccc(OCC(C)CN4CCOCC4)cc3)ccc2=O)c1` (stereo not shown) [Compound A18]: the pIC50 on Met kinase is 6.00 to 8.00.

Regarding `CCOC(=O)Nc1cccc(Cn2nc(-c3ccc(OC4CCCN(CC)C4)cc3)ccc2=O)c1` (stereo not shown) [Compound A15], the pIC50 against Met kinase was 6.00 to 8.00.

At Met kinase, `CCOC(=O)Nc1cccc(Cn2nc(-c3cc(F)c(OCCN(C)C)c(F)c3)ccc2=O)c1` [Compound A33] showed a pIC50 of 6.00 to 8.00.

`CCOC(=O)Nc1cccc(Cn2nc(-c3cc(F)c(OCCCO)c(F)c3)ccc2=O)c1` [Compound A38] showed a pIC50 against Met kinase of 6.00 to 8.00.

`CCOC(=O)Nc1cccc(Cn2nc(-c3ccc(OCCCCO)cc3)ccc2=O)c1` [Compound A10] showed a pIC50 on Met kinase of 6.00 to 8.00.

As for `CCOC(=O)Nc1cccc(Cn2nc(-c3ccc(OCC(=O)N(C)C)cc3)ccc2=O)c1` [Compound A14], on Met kinase, the pIC50 was 6.00 to 8.00.

Consider `CCOC(=O)Nc1cccc(Cn2nc(-c3ccc(OCCC4CCCN4C)cc3)ccc2=O)c1` (stereo not shown) [Compound A17], for which the negative-log IC50 (pIC50) at Met kinase is 6.00 to 8.00.

Compound `CCOC(=O)Nc1cccc(Cn2nc(-c3cc(F)c(OCCCN(C)C)c(F)c3)ccc2=O)c1` [Compound A27] showed a pIC50 on Met kinase of 6.00 to 8.00.

As for `CCOC(=O)Nc1cccc(Cn2nc(-c3ccc(OCCNC(=O)OC(C)(C)C)cc3)ccc2=O)c1` [Compound A6], the pIC50 on Met kinase was 6.00 to 8.00.

Regarding `CCOC(=O)Nc1cccc(Cn2nc(-c3ccc(OCCN(C(C)C)C(C)C)cc3)ccc2=O)c1` [Compound A13], the pIC50 against Met kinase is 6.00 to 8.00.

Compound `CCOC(=O)Nc1cccc(Cn2nc(-c3ccc(OCCCN(C)C)cc3)ccc2=O)c1` [Compound A3] gave a pIC50 on Met kinase of 6.00 to 8.00.

Compound `CCOC(=O)Nc1cccc(Cn2nc(-c3cc(F)c(OCCCCCNC(=O)OC(C)(C)C)c(F)c3)ccc2=O)c1` [Compound A31] showed a pIC50 against Met kinase of 6.00 to 8.00.

`CCOC(=O)Nc1cccc(Cn2nc(-c3ccc(OCCOC)cc3)ccc2=O)c1` [Compound A5] had a pIC50 on Met kinase of 6.00 to 8.00.

In turn, `CCOC(=O)Nc1cccc(Cn2nc(-c3ccc(OCCCCCNC(=O)OC(C)(C)C)cc3)ccc2=O)c1` [Compound A4] showed a pIC50 on Met kinase of 6.00 to 8.00.

`CCOC(=O)Nc1cccc(Cn2nc(-c3ccc(OCCCN4CCCCC4)cc3)ccc2=O)c1` [Compound A16]: the pIC50 against Met kinase is 6.00 to 8.00.

The compound `CCOC(=O)Nc1cccc(Cn2nc(-c3cccc(OCCOC)c3)ccc2=O)c1` [Compound A21] had a pIC50 against Met kinase of 6.00 to 8.00.

Compound `CCOC(=O)Nc1cccc(Cn2nc(-c3cc(F)c(OCCN)c(F)c3)ccc2=O)c1` [Compound A45] had a pIC50 against Met kinase of 6.00 to 8.00.
